Key:
Test in all cases: NCI60 five-dose screen
Type in all cases: cell-based
SNB-75 = details: Homo sapiens; SNB-75, CNS Cancer
Experimental: (§1) Since all new conjugates (3a–h) had notable antiproliferative activities on several tumor cell lines in the course of the one-dose screening, they were subjected to a five-dose test. […] J. Mol. Sci. 2025, 26, 11063 10 of 10 S.3. NCI60 Screening A detailed description of the NCI screening procedures can also be found on the website of NCI [39], and in our previous work. S.3.1. One-Dose Screen All candidates were examined at first at a single high dose (10 μM) in the full NCI60 cell panel. The value reported for the one-dose test is growth relative to the no-drug control and relative to the time zero number of cells. This made possible the disclosure of both growth inhibition (numbers between 0 and 100) and lethality (numbers less than 0). For example, a value of 100 means no growth inhibition. A value of 20 would mean 80% growth inhibition. A value of 0 means no net growth over the course of the analysis. A value of −20 would mean 20% lethality. A value of −100 means all cells are dead. S.3.2. […] The human tumor cell lines of the cancer screening panel were grown in RPMI 1640 medium containing 5% fetal bovine serum and 2 mM l-glutamine. Characteristically, cells were injected in 96-well microtiter plates in 0.1 mL at plating densities ranging from 5000 to 40,000 cells/well, depending on the doubling time of individual cell lines. After cell inoculation, the microtiter plates were incubated at 37 °C, 5% carbon dioxide, 95% air, and 100% relative humidity for 24 hours before the addition of tested compounds. After 24 hours, 2 plates of each cell line were fixed in situ with Cl3COOH (TCA), to represent a measurement of the cell population for each cell line at the time of drug addition (tz). Tested compounds were solubilized in DMSO at 400-fold the desired final maximum test concentration and stored frozen before application. In the course of the drug addition, an aliquot of frozen concentrate was thawed and diluted to twice the desired final maximum test concentration with a complete medium containing 50 μg mL−1 gentamicin. Additional four, 10-fold or ½ log serial dilutions were produced to furnish a total of five drug concentrations plus control. Aliquots of 0.1 mL of these different drug dilutions were added to the appropriate microtiter wells already containing 0.1 mL of medium, resulting in the required final drug concentrations. Following drug addition, the plates were incubated at 37 °C, 5% carbon dioxide, 95% air, and 100% relative humidity for an additional 48 hours. For adherent cells, the test was finished by the addition of cold Cl3COOH. Cells were fixed in situ by the addition of 50 μL of cold 50% (w/v) Cl3COOH, and incubated at 4 °C for 1 hour. The supernatant was discarded, and the plates were washed with H2O (5×) and dried in air. Sulforhodamine B (SRB) solution (0.1 mL) at 0.4% (w/v) in 1% CH3COOH was added to each well, and plates were incubated at RT for 10 min. After staining, the unbound dye was removed by washing five times with 1% CH3COOH, and the plates were dried in the air. The bound stain is afterward solubilized with a 10 mM trizma base, and the absorbance is read on an automated plate reader at λ = 515 nm. Utilizing the seven absorbance measurements [time zero (tz), control growth (c), and test growth in the presence of the drug at the five concentration levels (ti)], the percentage growth was determined at each of the drug concentration levels. Growth inhibition (%) was calculated as: [(ti − tz)/(c − tz)] × 100, for concentrations where ti ≥ tz (1) [(ti − tz)/(tz)] × 100, for concentrations where ti < tz. (2) Three dose‒response parameters were calculated as follows. GI50 (growth inhibition of 50%) was determined from Equation (3), which is the drug concentration resulting in a 50% reduction in the net protein increase (as measured by SRB staining) in control cells in the course of the drug incubation. [(ti − tz)/(c − tz)] × 100 = 50 (3)

MDA-MB-468 = details: Homo sapiens; MDA-MB-468, Breast Cancer
Experimental: as §1

PC-3 = details: Homo sapiens; PC-3, Prostate Cancer
Experimental: as §1

SK-OV-3 = details: Homo sapiens; SK-OV-3, Ovarian Cancer
Experimental: as §1

NCI-H23 = details: Homo sapiens; NCI-H23, Non-small-Cell Lung Cancer
Experimental: as §1

RPMI-8226 = details: Homo sapiens; RPMI-8226, Leukemia
Experimental: as §1

HCC-2998 = details: Homo sapiens; HCC-2998, Colon Cancer
Experimental: as §1

HL-60(TB) = details: Homo sapiens, Leukemia
Experimental: as §1

KM12 = details: Homo sapiens; KM12, Colon Cancer
Experimental: as §1

SK-MEL-28 = details: Homo sapiens; SK-MEL-28, Melanoma
Experimental: as §1

M14 = details: Homo sapiens; M14, Melanoma
Experimental: as §1

UO-31 = details: Homo sapiens; UO-31, Renal Cancer
Experimental: as §1

DU-145 = details: Homo sapiens; DU-145, Prostate Cancer
Experimental: as §1

HT29 = details: Homo sapiens, HT-29; HT29, Colon Cancer
Experimental: as §1

786-0 = details: Homo sapiens; 786-0, Renal Cancer
Experimental: as §1

SF-295 = details: Homo sapiens; SF-295, CNS Cancer
Experimental: as §1

A498 = details: Homo sapiens; A498, Renal Cancer
Experimental: as §1

HCT-15 = details: Homo sapiens; HCT-15, Colon Cancer
Experimental: as §1

UACC-62 = details: Homo sapiens; UACC-62, Melanoma
Experimental: as §1

HOP-62 = details: Homo sapiens; HOP-62, Non-small-Cell Lung Cancer
Experimental: as §1

OVCAR-8 = details: Homo sapiens; OVCAR-8, Ovarian Cancer
Experimental: as §1

OVCAR-5 = details: Homo sapiens; OVCAR-5, Ovarian Cancer
Experimental: as §1

SMILES	GI50 (SNB-75)	GI50 (MDA-MB-468)	GI50 (PC-3)	GI50 (SK-OV-3)	GI50 (NCI-H23)	GI50 (RPMI-8226)	GI50 (HCC-2998)	GI50 (HL-60(TB))	GI50 (KM12)	GI50 (SK-MEL-28)	GI50 (M14)	GI50 (UO-31)	GI50 (DU-145)	GI50 (HT29)	GI50 (786-0)	GI50 (SF-295)	GI50 (A498)	GI50 (HCT-15)	GI50 (UACC-62)	GI50 (HOP-62)	other results
O=c1cc(-c2ccccc2)oc2cc(OCCCC[P+](C3CCCCC3)(C3CCCCC3)C3CCCCC3)cc(O)c12 [3e]	529 nM	273 nM	501 nM	1470 nM	1340 nM	182 nM	504 nM	184 nM	382 nM	423 nM	515 nM	1610 nM	1240 nM	1770 nM	1570 nM	1400 nM	1690 nM	1550 nM	368 nM	1560 nM	GI50 (OVCAR-8): 595 nM; GI50 (OVCAR-5): 1300 nM
COc1c(C)cc([P+](CCCCOc2cc(O)c3c(=O)cc(-c4ccccc4)oc3c2)(c2cc(C)c(OC)c(C)c2)c2cc(C)c(OC)c(C)c2)cc1C [3f]	213 nM	64 nM	276 nM	263 nM	283 nM	110 nM	297 nM	78 nM	195 nM	491 nM	329 nM	277 nM	339 nM	646 nM	338 nM	240 nM	367 nM	345 nM	312 nM	311 nM	GI50 (OVCAR-8): 350 nM; GI50 (OVCAR-5): 335 nM
Cc1ccccc1[P+](CCCCOc1cc(O)c2c(=O)cc(-c3ccccc3)oc2c1)(c1ccccc1C)c1ccccc1C [3g]	274 nM	148 nM	308 nM	277 nM	243 nM	135 nM	239 nM	180 nM	280 nM	323 nM	335 nM	1770 nM	376 nM	1220 nM	291 nM	648 nM	462 nM	1410 nM	319 nM	332 nM	GI50 (OVCAR-8): 560 nM; GI50 (OVCAR-5): 1720 nM
O=c1cc(-c2ccccc2)oc2cc(OCCCC[P+](c3ccccc3)(c3ccccc3)c3ccccn3)cc(O)c12 [3h]	572 nM	176 nM	572 nM	1520 nM	776 nM	248 nM	445 nM	130 nM	523 nM	570 nM	564 nM	1540 nM	1220 nM	1750 nM	1570 nM	1360 nM	1730 nM	1580 nM	549 nM	1520 nM	GI50 (OVCAR-8): 494 nM; GI50 (OVCAR-5): 1440 nM

From publication PMC12652692, “Synthesis and In Vitro Anticancer Evaluation of Novel Phosphonium Derivatives of Chrysin” (International Journal of Molecular Sciences, 2025)
